Reference: the supplement of paper PMC10307832

Legend:
Assay in all cases: relative viability (nuclei count vs DMSO), 5 days (fraction); higher = more cells survive
NCI-H23 = tested on: NCI-H23
Method in brief: (§1)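 Lung cancer cell lines in 1536-well plates got either a single drug or a fixed anchor-drug dose together with five library-drug doses (not always all listed) in √10 steps, by pin tool, on the day after seeding. Nuclei were counted after 5 days, and relative viability is the treated-to-vehicle ratio of nuclei counts. Values are medians of duplicate plates.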

SK-LU-1 = tested on: SK-LU-1
Method in brief: as §1

NCI-H1793 = tested on: NCI-H1793
Method in brief: as §1

NCI-H661 = tested on: NCI-H661
Method in brief: as §1

PC-14 = tested on: PC-14
Method in brief: as §1

EKVX = tested on: EKVX
Method in brief: as §1

NCI-H1993 = tested on: NCI-H1993
Method in brief: as §1

NCI-H460 = tested on: NCI-H460
Method in brief: as §1

ChaGo-K-1 = tested on: ChaGo-K-1
Method in brief: as §1

NCI-H1944 = tested on: NCI-H1944
Method in brief: as §1

EPLC-272H = tested on: EPLC-272H
Method in brief: as §1

NCI-H322M = tested on: NCI-H322M
Method in brief: as §1

NCI-H1792 = tested on: NCI-H1792
Method in brief: as §1

H3255 = tested on: H3255
Method in brief: as §1

HCC-15 = tested on: HCC-15
Method in brief: as §1

LCLC-97TM1 = tested on: LCLC-97TM1
Method in brief: as §1

HCC-827 = tested on: HCC-827
Method in brief: as §1

LC-2-ad = tested on: LC-2-ad
Method in brief: as §1

NCI-H1915 = tested on: NCI-H1915
Method in brief: as §1

NCI-H522 = tested on: NCI-H522
Method in brief: as §1

SW 900 = tested on: SW 900
Method in brief: as §1

EMC-BAC-2 = tested on: EMC-BAC-2
Method in brief: as §1

COCC1(CO)C(=O)C2CCN1CC2 (stereo not drawn) [PRIMA-1MET] + Cc1nc(Nc2ncc(C(=O)Nc3c(C)cccc3Cl)s2)cc(N2CCN(CCO)CC2)n1 [Dasatinib] (partner 0.075 µM)
relative viability (NCI-H23; first compound 0.2 µM): 0.692
relative viability (NCI-H23; first compound 0.6325 µM): 0.799
relative viability (NCI-H23; first compound 2 µM): 0.687
relative viability (NCI-H23; first compound 6.325 µM): 0.721
relative viability (NCI-H23; first compound 20 µM): 0.221
relative viability (SK-LU-1; first compound 0.2 µM): 0.192
relative viability (SK-LU-1; first compound 0.6325 µM): 0.177
relative viability (SK-LU-1; first compound 2 µM): 0.186
relative viability (SK-LU-1; first compound 6.325 µM): 0.155
relative viability (SK-LU-1; first compound 20 µM): 0.0741
relative viability (NCI-H1793; first compound 0.2 µM): 0.431
relative viability (NCI-H1793; first compound 0.6325 µM): 0.365
relative viability (NCI-H1793; first compound 6.325 µM): 0.404
relative viability (NCI-H1793; first compound 20 µM): 0.35
relative viability (NCI-H661; first compound 0.2 µM): 0.858
relative viability (NCI-H661; first compound 0.6325 µM): 0.733
relative viability (NCI-H661; first compound 2 µM): 0.89
relative viability (NCI-H661; first compound 6.325 µM): 0.883
relative viability (NCI-H661; first compound 20 µM): 0.796
relative viability (PC-14; first compound 0.2 µM): 0.249
relative viability (PC-14; first compound 0.6325 µM): 0.249
relative viability (PC-14; first compound 2 µM): 0.276
relative viability (PC-14; first compound 6.325 µM): 0.249
relative viability (PC-14; first compound 20 µM): 0.0176
relative viability (EKVX; first compound 0.2 µM): 0.469
relative viability (EKVX; first compound 0.6325 µM): 0.482
relative viability (EKVX; first compound 2 µM): 0.468
relative viability (EKVX; first compound 6.325 µM): 0.518
relative viability (EKVX; first compound 20 µM): 0.564
relative viability (NCI-H1993; first compound 0.2 µM): 0.596
relative viability (NCI-H1993; first compound 0.6325 µM): 0.587
relative viability (NCI-H1993; first compound 2 µM): 0.574
relative viability (NCI-H1993; first compound 6.325 µM): 0.554
relative viability (NCI-H1993; first compound 20 µM): 0.582
relative viability (NCI-H460; first compound 0.2 µM): 0.495
relative viability (NCI-H460; first compound 0.6325 µM): 0.321
relative viability (NCI-H460; first compound 2 µM): 0.511
relative viability (NCI-H460; first compound 6.325 µM): 0.518
relative viability (NCI-H460; first compound 20 µM): 0.196
relative viability (ChaGo-K-1; first compound 0.2 µM): 0.626
relative viability (ChaGo-K-1; first compound 0.6325 µM): 0.567
relative viability (ChaGo-K-1; first compound 2 µM): 0.687
relative viability (ChaGo-K-1; first compound 6.325 µM): 0.54
relative viability (ChaGo-K-1; first compound 20 µM): 0.363
relative viability (NCI-H1944; first compound 0.2 µM): 0.225
relative viability (NCI-H1944; first compound 0.6325 µM): 0.19
relative viability (NCI-H1944; first compound 2 µM): 0.213
relative viability (NCI-H1944; first compound 6.325 µM): 0.219
relative viability (NCI-H1944; first compound 20 µM): 0.232
relative viability (EPLC-272H; first compound 2 µM): 0.349
relative viability (EPLC-272H; first compound 6.325 µM): 0.347
relative viability (EPLC-272H; first compound 20 µM): 0.0979
relative viability (NCI-H322M; first compound 0.2 µM): 0.265
relative viability (NCI-H322M; first compound 0.6325 µM): 0.258
relative viability (NCI-H322M; first compound 6.325 µM): 0.243
relative viability (NCI-H322M; first compound 20 µM): 0.0311
relative viability (NCI-H1792; first compound 0.2 µM): 0.816
relative viability (NCI-H1792; first compound 0.6325 µM): 0.717
relative viability (NCI-H1792; first compound 2 µM): 0.811
relative viability (NCI-H1792; first compound 6.325 µM): 0.883
relative viability (NCI-H1792; first compound 20 µM): 0.754
relative viability (H3255; first compound 0.2 µM): 0.285
relative viability (H3255; first compound 0.6325 µM): 0.439
relative viability (H3255; first compound 2 µM): 0.487
relative viability (H3255; first compound 6.325 µM): 0.373
relative viability (H3255; first compound 20 µM): 0.28
relative viability (HCC-15; first compound 0.2 µM): 0.732
relative viability (HCC-15; first compound 0.6325 µM): 0.628
relative viability (HCC-15; first compound 2 µM): 0.639
relative viability (HCC-15; first compound 6.325 µM): 0.625
relative viability (HCC-15; first compound 20 µM): 0.181
relative viability (LCLC-97TM1; first compound 0.2 µM): 0.461
relative viability (LCLC-97TM1; first compound 0.6325 µM): 1.01
relative viability (LCLC-97TM1; first compound 2 µM): 0.815
relative viability (LCLC-97TM1; first compound 6.325 µM): 0.855
relative viability (LCLC-97TM1; first compound 20 µM): 0.833
relative viability (HCC-827; first compound 0.2 µM): 0.417
relative viability (HCC-827; first compound 0.6325 µM): 0.337
relative viability (HCC-827; first compound 2 µM): 0.427
relative viability (HCC-827; first compound 6.325 µM): 0.332
relative viability (HCC-827; first compound 20 µM): 0.315
relative viability (LC-2-ad; first compound 0.2 µM): 0.346
relative viability (LC-2-ad; first compound 2 µM): 0.472
relative viability (LC-2-ad; first compound 6.325 µM): 0.584
relative viability (LC-2-ad; first compound 20 µM): 0.508
relative viability (NCI-H1915; first compound 0.2 µM): 0.328
relative viability (NCI-H1915; first compound 0.6325 µM): 0.284
relative viability (NCI-H1915; first compound 6.325 µM): 0.269
relative viability (NCI-H1915; first compound 20 µM): 0.272
relative viability (NCI-H522; first compound 0.2 µM): 0.797
relative viability (NCI-H522; first compound 0.6325 µM): 0.738
relative viability (NCI-H522; first compound 2 µM): 0.852
relative viability (NCI-H522; first compound 6.325 µM): 0.68
relative viability (NCI-H522; first compound 20 µM): 0.0665
relative viability (SW 900; first compound 0.2 µM): 0.632
relative viability (SW 900; first compound 0.6325 µM): 0.642
relative viability (SW 900; first compound 2 µM): 0.386
relative viability (SW 900; first compound 6.325 µM): 0.0491
relative viability (SW 900; first compound 20 µM): 0.0965
relative viability (EMC-BAC-2; first compound 0.2 µM): 0.394
relative viability (EMC-BAC-2; first compound 0.6325 µM): 0.298
relative viability (EMC-BAC-2; first compound 6.325 µM): 0.378
relative viability (EMC-BAC-2; first compound 20 µM): 0.247
